Calls of active or inactive are those of the source. The calls are words filed in the database; no cut-off is given here.
What was measured:
[1] = test system: Plasmodium yoelii nigeriensis; assay: Antimalarial activity against Plasmodium yoelii nigeriensis infected Swiss mice (Mus musculus) at 48 mg/kg peroral dose over 4 days; format: functional; conditions: route oral
[2] = test system: Plasmodium yoelii nigeriensis; assay: Antimalarial activity against Plasmodium yoelii nigeriensis infected Swiss mice (Mus musculus) at 24 mg/kg peroral dose over 4 days; format: functional; conditions: route oral
[3] = test system: Mus musculus; assay: Survival of Swiss mice (Mus musculus) infected with Plasmodium yoelii nigeriensis at 48 mg/kg, peroral after 28 days; format: functional, organism-based; design: dose 48 mg/kg
[4] = test system: Mus musculus; assay: Survival of Swiss mice (Mus musculus) infected with Plasmodium yoelii nigeriensis at 24 mg/kg, peroral after 28 days; format: functional, organism-based; design: dose 24 mg/kg
[5] = Partition coefficient, log P of the compound; format: physicochemical; conditions: octanol/water
[6] = test system: Plasmodium yoelii nigeriensis; assay: Antimalarial activity against Plasmodium yoelii nigeriensis infected Swiss mice (Mus musculus) at 96 mg/kg intramuscular dose over 4 days; format: functional
[7] = test system: Mus musculus; assay: Survival of Swiss mice (Mus musculus) infected with Plasmodium yoelii nigeriensis at 96 mg/kg, peroral after 28 days; format: functional, organism-based; design: dose 96 mg/kg
[8] = test system: Mus musculus; assay: Survival of Swiss mice (Mus musculus) infected with Plasmodium yoelii nigeriensis at 96 mg/kg, intramuscular after 28 days; format: functional, organism-based; design: dose 96 mg/kg
[9] = test system: Plasmodium yoelii nigeriensis; assay: Antimalarial activity at day 4 against Plasmodium yoelii nigeriensis infected in Swiss mice (Mus musculus) at 96 mg/kg peroral dose; format: functional; conditions: route oral
[10] = test system: Plasmodium cynomolgi; assay: Antimalarial activity against Plasmodium cynomolgi infected Rhesus monkey at 10 mg/kg intramuscular dose over 4 days; format: functional, organism-based; design: dose 10 mg/kg
[11] = test system: Plasmodium cynomolgi; assay: Antimalarial activity against Plasmodium cynomolgi infected Rhesus monkey at 10 mg/kg peroral dose over 4 days; format: functional; conditions: route oral
[12] = test system: Plasmodium cynomolgi; assay: Antimalarial activity against Plasmodium cynomolgi infected Rhesus monkey at 20 mg/kg peroral dose after 5 days; format: functional; conditions: route oral

| SMILES | Activity [1] | Activity [2] | Activity [3] | Activity [4] | logP [5] | Activity [6] | Activity [7] | Activity [8] | Activity [9] | Activity [10] | Activity [11] | Activity [12] |
| --- | --- | --- | --- | --- | --- | --- | --- | --- | --- | --- | --- | --- |
| CCO[C@H]1O[C@@H]2O[C@@]3(C)CC[C@H]4[C@H](C)CC[C@@H]([C@H]1C)[C@@]24OO3 [ARTEMOTIL] | 100% | 100% | Active |  |  |  |  |  |  |  |  |  |
| C[C@H]1[C@H](OC(=O)CCC(=O)O)O[C@@H]2O[C@@]3(C)CC[C@H]4[C@H](C)CC[C@@H]1[C@@]24OO3 [ARTESUNATE] | 100% | 100% | Active | inactive | 3.04 |  |  |  |  |  |  |  |
| C=C(c1ccc2ccc3ccccc3c2c1)C1COC2(OO1)C1CC3CC(C1)CC2C3 (stereo not drawn) | 100% |  |  |  | 6.65 | 69% | Active | inactive | 100% |  |  |  |
| C=C(C1COC2(CCCCC2)OO1)C12CC3CC(CC(C3)C1)C2 (stereo not drawn) |  |  |  |  | 4.79 |  | inactive | inactive | 52% |  |  |  |
| C=C(c1ccccc1)C1COC2(OO1)C1CC3CC(C1)CC2C3 (stereo not drawn) |  |  |  |  | 4.65 | 97% | inactive | inactive | 99% |  |  |  |
| C=C(c1ccc2ccccc2c1)C1COC2(OO1)C1CC3CC(C1)CC2C3 (stereo not drawn) | 100% |  |  |  | 5.65 | 71% |  | inactive | 100% |  |  |  |
| C=C(c1ccc2c(ccc3ccccc32)c1)C1COC2(OO1)C1CC3CC(C1)CC2C3 (stereo not drawn) | 100% |  |  |  | 6.65 | 100% |  |  | 100% |  |  |  |
| C=C(c1ccc2c(c1)CCCC2)C1COC2(OO1)C1CC3CC(C1)CC2C3 (stereo not drawn) | 100% |  |  |  | 5.96 | 100% | Active |  | 100% |  |  |  |
| C=C(C1COC2(CCCC2)OO1)C12CC3CC(CC(C3)C1)C2 (stereo not drawn) |  |  |  |  | 4.38 | 38% | inactive | inactive | 57% |  |  |  |
| C=C(c1ccc2c(c1)Cc1ccccc1-2)C1COC2(OO1)C1CC3CC(C1)CC2C3 (stereo not drawn) | 100% | 100% | Active |  | 6.39 | 100% | Active |  | 100% | inactive | 100% | 100% |
| C=C(c1cccc2ccccc12)C1COC2(OO1)C1CC3CC(C1)CC2C3 (stereo not drawn) | 100% |  |  |  | 5.65 | 87% | Active | inactive | 100% |  |  |  |
| C=C(C1COC2(OO1)C1CC3CC(C1)CC2C3)C12CC3CC(CC(C3)C1)C2 (stereo not drawn) |  |  |  |  | 5.43 | 14% | inactive | inactive | 70% |  |  |  |
